Test results: patent US20250049717A1, “DRY POWDER FORMULATIONS OF NARROW SPECTRUM KINASE INHIBITORS” (Pulmatrix Operating Company, Inc., priority 2021, published 2025)

Assay: Excipient compatibility study, stressed storage, impurities by HPLC
Type: physicochemical
Experimental: Compound A Content/Purity using HPLC. A high performance liquid chromatography (HPLC) method utilizing a reverse phase C18 column coupled to an ultraviolet (UV) detector has been developed for the identification, bulk content, assay, CUPMD and impurities analysis of formulations of Compound A. The reverse phase column is equilibrated to 40° C. and the autosampler is set to 5° C. The mobile phases, 10 mM ammonium acetate with 0.1% TFA (mobile phase A) and acetonitrile (mobile phase B) are used in a gradient elution from a ratio of 70:30 (A:B) to 0:100 (A:B), over the course of a 20 minute run time. Detection is by UV at 260 nm and the injection volume is 30 μL. Compound A content in powders are quantified relative to a standard curve. Formula strength can be determined by measuring the amount of Compound A in the bulk powder with HPLC, then dividing the measured amount by the nominal amount of Compound A in the powder. A formula strength of a dry powder disclosed herein may be between about 90% and about 105%, e.g., about 93%, about 94%, about 95%, about 96%, about 97%, about 98%, about 99%, about 100%, about 101%, or about 102%.
The spray dried Compound A formulations were exposed to stressed storage conditions for up to two weeks to assess the potential for excipient-induced degradation. The powders were added to 4 mL vials and exposed to 60° C./30% RH, 70° C./10% RH and 80° C./50% RH. Testing for impurities occurred at t=0, t=3 days, t=7 days and t=14 days for samples held at 60° C./30% RH and 70° C./10% RH and at t=0, t=3 days and t=7 days for samples held at 80° C./50% RH. Control samples including Formulation VI, comprising 50% micronized Compound A, 45% sodium chloride, and 5% polysorbate 80 as well as as-received micronized Compound A were included in an attempt to decouple particle size effects and/or the degradation potential of polysorbate 80.

Cc1ccc(-n2nc(C(C)(C)C)cc2NC(=O)Nc2ccc(Oc3ccnc(Nc4ccccc4)n3)c3ccccc23)cc1 [Compound A, 1-(3-tert-butyl-1-p-tolyl-1H-pyrazol-5-yl)-3-(4-(2-(phenylamino)pyrimidin-4-yloxy)naphthalen-1-yl)urea]
Total Impurities (60 C./30% RH, 3 days): 0.28 % w/w
Total Known Impurities (60 C./30% RH, 3 days): 0.20 % w/w
Total Unknown Impurities (60 C./30% RH, 3 days): 0.08 % w/w
Total Impurities (60 C./30% RH, 7 days): 0.26 % w/w
Total Known Impurities (60 C./30% RH, 7 days): 0.17 % w/w
Total Unknown Impurities (60 C./30% RH, 7 days): 0.09 % w/w
Total Impurities (60 C./30% RH, 14 days): 0.21 % w/w
Total Known Impurities (60 C./30% RH, 14 days): 0.14 % w/w
Total Unknown Impurities (60 C./30% RH, 14 days): 0.07 % w/w
Total Impurities (70 C./10% RH, 3 days): 0.29 % w/w
Total Known Impurities (70 C./10% RH, 3 days): 0.19 % w/w
Total Unknown Impurities (70 C./10% RH, 3 days): 0.11 % w/w
Total Impurities (70 C./10% RH, 7 days): 0.31 % w/w
Total Known Impurities (70 C./10% RH, 7 days): 0.17 % w/w
Total Unknown Impurities (70 C./10% RH, 7 days): 0.14 % w/w
Total Impurities (70 C./10% RH, 14 days): 0.20 % w/w
Total Known Impurities (70 C./10% RH, 14 days): 0.13 % w/w
Total Unknown Impurities (70 C./10% RH, 14 days): 0.08 % w/w
Total Impurities (80 C./50% RH, 3 days): 0.24 % w/w
Total Known Impurities (80 C./50% RH, 3 days): 0.16 % w/w
Total Unknown Impurities (80 C./50% RH, 3 days): 0.09 % w/w
Total Impurities (80 C./50% RH, 7 days): 0.32 % w/w
Total Known Impurities (80 C./50% RH, 7 days): 0.14 % w/w
Total Unknown Impurities (80 C./50% RH, 7 days): 0.18 % w/w
Total Impurities (time point 0 days): 0.29 % w/w
Total Known Impurities (time point 0 days): 0.22 % w/w
Total Unknown Impurities (time point 0 days): 0.07 % w/w
